In PubChem BioAssay AID256 (DTP/NCI, 2004):
Several values for one entry are separate records, joined by “and”; a condition that tells them apart may be missing. Equal values may be shown once. Inconclusive results and toxic doses are left out. The calls were made as follows: active = survival T/C of 150% or more; inactive = T/C below 125% in these data. Residues, ends and D or L forms follow the SMILES beside them. *: point of attachment. Dnp = O=[N+]([O-])c1ccc(*)c([N+](=O)[O-])c1

System: CD2F1 mice, L1210 leukemia ip, survival T/C
Test: NCI In Vivo Anticancer Drug Screen. Data for tumor model L1210 Leukemia (intraperitoneal) in CD2F1 (CDF1) mice
Conditions: higher = longer survival
Method in brief: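 Implant tumor; dose compound or vehicle; measure endpoint in both groups; report treated divided by control.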

[1] = endpoint: mean survival time, dose: 25.0 mg/kg/injection, schedule: Q04DX003 (ip), vehicle: saline with Tween-80
[2] = endpoint: mean survival time, dose: 100.0 mg/kg/injection, schedule: Q04DX002 (ip), vehicle: saline with Tween-80
[3] = endpoint: mean survival time, dose: 200.0 mg/kg/injection, schedule: Q04DX002 (ip), vehicle: saline with Tween-80
[4] = endpoint: mean survival time, dose: 400.0 mg/kg/injection, schedule: Q04DX002 (ip), vehicle: saline with Tween-80
[5] = endpoint: mean survival time, dose: 400.0 mg/kg/injection, schedule: Q04DX003 (ip), vehicle: saline with Tween-80
[6] = endpoint: mean survival time, dose: 100.0 mg/kg/injection, schedule: Q01DX009 (ip), vehicle: saline with Tween-80
[7] = endpoint: mean survival time, dose: 200.0 mg/kg/injection, schedule: Q01DX009 (ip), vehicle: saline with Tween-80
[8] = endpoint: mean survival time, dose: 400.0 mg/kg/injection, schedule: Q01DX009 (ip), vehicle: saline with Tween-80
[9] = endpoint: mean survival time, dose: 100.0 mg/kg/injection, schedule: Q04DX003 (ip), vehicle: saline with Tween-80
[10] = endpoint: mean survival time, dose: 200.0 mg/kg/injection, schedule: Q04DX003 (ip), vehicle: saline with Tween-80
[11] = endpoint: mean survival time, dose: 100.0 mg/kg/injection, schedule: Q01DX001 (ip), vehicle: saline
[12] = endpoint: mean survival time, dose: 200.0 mg/kg/injection, schedule: Q01DX001 (ip), vehicle: saline
[13] = endpoint: mean survival time, dose: 400.0 mg/kg/injection, schedule: Q01DX001 (ip), vehicle: saline

Measured: T/C

C1C[N-]CC[N-]CC[N-]CC[N-]1.[Cl][Rh][Cl]
inactive: endpoint: mean survival time, dose: 1.56 mg/kg/injection, schedule: Q01DX009 (ip), vehicle: saline 100 % of control | endpoint: mean survival time, dose: 3.13 mg/kg/injection, schedule: Q01DX009 (ip), vehicle: saline 102 % of control | endpoint: mean survival time, dose: 6.25 mg/kg/injection, schedule: Q01DX009 (ip), vehicle: saline 100 % of control | endpoint: mean survival time, dose: 12.5 mg/kg/injection, schedule: Q01DX009 (ip), vehicle: saline 98 % of control and 108 % of control

Cc1cc(C)c(NC(=O)CC#N)cc1C
inactive: [1] 113 % of control and 93 % of control | endpoint: mean survival time, dose: 50.0 mg/kg/injection, schedule: Q04DX003 (ip), vehicle: saline with Tween-80 89 % of control and 103 % of control | endpoint: mean survival time, dose: 100.0 mg/kg/injection, schedule: Q01DX001 (ip), vehicle: saline with Tween-80 100 % of control | [2] 90 % of control | endpoint: mean survival time, dose: 200.0 mg/kg/injection, schedule: Q01DX001 (ip), vehicle: saline with Tween-80 102 % of control | [3] 102 % of control | endpoint: mean survival time, dose: 400.0 mg/kg/injection, schedule: Q01DX001 (ip), vehicle: saline with Tween-80 102 % of control | [4] 105 % of control | [5] 93 % of control

O=C(Nc1ccc(Cl)c(Cl)c1)c1ccc(Cl)c(Cl)c1
inactive: [2] 95 % of control | [4] 91 % of control

O=C1NC(c2ccccc2)C([N+](=O)[O-])=C1O (configuration not stated)
inactive: endpoint: mean survival time, dose: 100.0 mg/kg/injection, schedule: Q01DX009 (ip), vehicle: saline sonified 101 % of control | [6] 101 % of control | endpoint: mean survival time, dose: 200.0 mg/kg/injection, schedule: Q01DX009 (ip), vehicle: saline sonified 98 % of control | [7] 95 % of control | endpoint: mean survival time, dose: 400.0 mg/kg/injection, schedule: Q01DX009 (ip), vehicle: saline sonified 102 % of control | [8] 97 % of control

CCCCCCCCCCCCCCCC(=O)N1CCC(N2CCCCC2)CC1
inactive: endpoint: mean survival time, dose: 50.0 mg/kg/injection, schedule: Q01DX009 (ip), vehicle: saline with Tween-80 95 % of control | [6] 97 % of control | [9] 92 % of control | [7] 92 % of control | [10] 88 % of control

CN1COc2c(n(C)c(=O)[nH]c2=O)C1
inactive: endpoint: median survival time, dose: 50.0 mg/kg/injection, schedule: Q01DX005 (ip), vehicle: saline 98 % of control | endpoint: median survival time, dose: 50.0 mg/kg/injection, schedule: Q01DX005 (ip), vehicle: suspension in saline 101 % of control | endpoint: median survival time, dose: 100.0 mg/kg/injection, schedule: Q01DX005 (ip), vehicle: saline 98 % of control | endpoint: median survival time, dose: 100.0 mg/kg/injection, schedule: Q01DX005 (ip), vehicle: suspension in saline 103 % of control | endpoint: median survival time, dose: 200.0 mg/kg/injection, schedule: Q01DX005 (ip), vehicle: saline 101 % of control | endpoint: median survival time, dose: 200.0 mg/kg/injection, schedule: Q01DX005 (ip), vehicle: suspension in saline 102 % of control | endpoint: median survival time, dose: 400.0 mg/kg/injection, schedule: Q01DX005 (ip), vehicle: saline 109 % of control | endpoint: median survival time, dose: 400.0 mg/kg/injection, schedule: Q01DX005 (ip), vehicle: suspension in saline 119 % of control | endpoint: median survival time, dose: 800.0 mg/kg/injection, schedule: Q01DX005 (ip), vehicle: saline 108 % of control | endpoint: median survival time, dose: 800.0 mg/kg/injection, schedule: Q01DX005 (ip), vehicle: suspension in saline 116 % of control

Oc1ccccc1NC(=S)Nc1ccccc1
inactive: [11] 102 % of control | [12] 98 % of control | [13] 100 % of control

CCCCCCCCCCCCCCCCOCCOCCOCCOCCOCCCCCCCCCCCCCCCC
inactive: [2] 94 % of control | [3] 94 % of control | [4] 98 % of control

NCC(=O)NC(CSc1ccc([N+](=O)[O-])cc1[N+](=O)[O-])C(=O)NC(CCC(=O)O)C(=O)O (configuration not stated) (H-Gly-Cys(Dnp)-Glu-OH; configuration not given here)
inactive: [9] 103 % of control | [10] 101 % of control | [5] 98 % of control

O=C(Nc1ccc(Oc2ccccc2)cc1)c1ccc(C(=O)Nc2ccc(Oc3ccccc3)cc2)cc1
inactive: [11] 92 % of control | [12] 92 % of control | [13] 95 % of control

CCOP(=O)(NCCCSC)OCC
inactive: endpoint: mean survival time, dose: 5.0 mg/kg/injection, schedule: Q01DX009 (ip), vehicle: saline 96 % of control | endpoint: mean survival time, dose: 10.0 mg/kg/injection, schedule: Q01DX009 (ip), vehicle: saline 97 % of control | endpoint: mean survival time, dose: 20.0 mg/kg/injection, schedule: Q01DX009 (ip), vehicle: saline 88 % of control

Cc1cccnc1N.[Cl-].[Cl-].[Cl-].[Cl-].[Pt+2]
inactive: endpoint: mean survival time, dose: 21.88 mg/kg/injection, schedule: Q04DX003 (ip), vehicle: saline with Tween-80 104 % of control | endpoint: mean survival time, dose: 43.75 mg/kg/injection, schedule: Q04DX003 (ip), vehicle: saline with Tween-80 110 % of control

O=C(O)/C=C/C(=O)c1ccccc1
inactive: endpoint: mean survival time, dose: 12.5 mg/kg/injection, schedule: Q04DX003 (ip), vehicle: saline with Tween-80 104 % of control | [1] 98 % of control

O=CC(C=O)[N+](=O)[O-]
inactive: [11] 103 % of control | [12] 103 % of control | [13] 97 % of control

O=Cc1c2ccc(Cl)cc2nc2ccc(Cl)cc12
inactive: [9] 101 % of control | [10] 98 % of control | [5] 94 % of control

CC1=C(C)C2(C)C1(C)C1(C)C(C)=C(C)C21C (configuration not stated)
inactive: [9] 96 % of control | [10] 93 % of control | [5] 89 % of control

O=C1C2C(C(=O)N1c1ccc(OCc3ccccc3)cc1)C1c3ccccc3C2C2CCCCN21 (configuration not stated)
inactive: endpoint: mean survival time, dose: 25.0 mg/kg/injection, schedule: Q01DX009 (ip), vehicle: water 100 % of control | endpoint: mean survival time, dose: 50.0 mg/kg/injection, schedule: Q01DX009 (ip), vehicle: water 86 % of control

C=C1C(=O)O[C@H]2C[C@@H](C)[C@@H]3[C@@H](O)C[C@@H](O)[C@@]3(C)C[C@H]12
inactive: [6] 100 % of control | [9] 102 % of control | [7] 94 % of control | [10] 96 % of control | [8] 100 % of control | [5] 103 % of control
